From patent US5656662A, “Synthesis of optically pure 4-alkenyl- or 4-alkanyl-2-hydroxytetronic acids” (The Ohio State University Research Foundation, priority 1995, dated 1997)

Key:
Format in all cases: cell-based
[1] = tested on: TxA2; assay: TxA2 production by purified human monocytes; set-up: key to EFFECT on TxA2: NE: No effect; INHIB: Inhibition; STIM: Stimulation; IC40: 40% Inhibitory Concentration; EC50: 50% Effective Concentration; TC: Tolerated Concentration; IA: Interferes with Assay
Procedure: This procedure measures the ability of test compounds to modulate the amount of TxA2 (the major cyclo-oxygenase product) produced by purified human monocytes. Compounds are tested for their ability to downregulate the secretion of TxA2 from activated monocytes, or upregulate secretion of TxA2 from unstimulated monocytes. Test compounds are incubated for ninety minutes with purified human monocytes at four dilutions over a range of three log10 concentrations. Where appropriate, zymosan is used to stimulate the monocytes.
The level of TxA2 in the resultant supernatants is quantitated by immunoassay performed in a 96 well format. TxA2 levels modulated by unknown compounds are determined by interpolation from a standard curve. All compounds are tested in duplicate with controls and standards.

[2] = tested on: IL-1β; assay: IL-1β secretion from purified human monocytes; set-up: key to EFFECT on IL1β: NE: No effect; INHIB: Inhibition; STIM: Stimulation; IC40: 40% Inhibitory Concentration; EC50: 50% Effective Concentration; TC: Tolerated Concentration; IA: Interferes with Assay
Procedure: This assay determines the effect of test compounds on the secretion of IL-1β from purified human monocytes.
Compounds are tested for their ability to downregulate the production of IL-1β in activated monocytes, or upregulate secretion of IL-1β in unstimulated monocytes. Test compounds are incubated for sixteen hours with purified human monocytes at four dilutions over a range of three log10 concentrations. Where appropriate, lipopolysaccharide (LPS) is used to stimulate the monocytes.
The level of IL-1β in the resultant supernatants is quantitated in a solid phase Enzyme-linked Immunoassay (EIA) performed in a 96 well format. IL-1β present in the samples is captured by a specific monoclonal antibody immobilized on the well, and probed with an anti-IL-1β polyclonal antibody conjugated to horseradish peroxidase, followed by an appropriate substrate. The levels of IL-1β are determined by interpolation of the resultant color change in the substrate from a standard curve. All supernatants are tested in duplicate with controls and standards.
This assay determines the effect of test compounds on the secretion of IL-1β from purified human monocytes. Compounds are tested for their ability to downregulate the production of IL-1β in activated monocytes, or upregulate secretion of IL-1β in unstimulated monocytes. Test compounds are incubated for sixteen hours with purified human monocytes at four dilutions over a range of three log10 concentrations. Where appropriate, lipopolysaccharide (LPS) is used to stimulate the monocytes.

[3] = tested on: adhesion of purified human monocytes to human umbilical vein endothelial cell (HUVEC) cultures; assay: Adhesion of purified human monocytes to HUVEC cultures; set-up: key: NE: No effect; INHIB: Inhibition; STIM: Stimulation; IC40: 40% Inhibitory Concentration; EC50: 50% Effective Concentration; TC: Tolerated Concentration; IA: Interferes with Assay; details: STIMULATED
Procedure: This assays measures the ability of test compounds to modulate adhesion of purified human monocytes to human umbilical vein endothelial cell (HUVEC) cultures. HUVECs are cultured to confluence in 96-well plates. Purified human monocytes are labelled with fluorescent dye. Triplicate cultures of HUVECs and monocytes are treated with four dilutions of test compound over a range of three log10 concentrations, in addition to stimulated and unstimulated controls. One hour after treatment, TNFα is added to HUVEC cultures to stimulate production of adhesion molecules. After a twelve hour incubation, the treated monocytes are added to their corresponding HUVEC cultures and incubated for ten minutes. The stimulation index (S.I.) is determined by comparing the fluorescence of treated cultures to untreated controls using a fluorometric readout in a 96-well format.

With CCCCCCCCCCCCCC/C=C\CC[C@@H]1OC(=O)C(O)=C1O [(S)-3,4-Dihydroxy-5-[(Z)-3-octadecenyl]-2(5H)-furanone] the EC50 ([1]; Homo sapiens, Monocyte, STIMULATED, INHIB) was 5 µM, the “EFFECT on TxA2” value ([1]; STIMULATED) was “INHIB” and the “EFFECT on TxA2” value ([1]; UNSTIMULATED) was “NE”. The IC40 ([2]; Homo sapiens, Monocyte, 16 h, STIMULATED, INHIB, 40% Inhibitory Concentration, read-out: IC40, IL1β) was 50 µM, the “EFFECT on IL1β” value ([2]; STIMULATED) was “INHIB” and the “EFFECT on IL1β” value ([2]; UNSTIMULATED) was “NE”. For the same compound, the “EFFECT on ADHESION” value [3] was “NE”.
